Measurements from ChEMBL document CHEMBL3885881, “DrugMatrix”.

Species on record: Rattus norvegicus
Assay: DrugMatrix - Regimen: Daily Repeat
Assay type: toxicity, organism-based, Sprague-Dawley
Parameters: regimen Daily Repeat, gender Male, age 6-8 weeks
Settings: in vivo, po, route oral GAVAGE, vehicle .5 % CMC; for TOTAL PROTEIN / ALANINE AMINOTRANSFERASE / ALBUMIN / ALKALINE PHOSPHATASE / ASPARTATE AMINOTRANSFERASE / CARBON DIOXIDE / CHLORIDE / CHOLESTEROL / CREATINE PHOSPHOKINASE / CREATININE / GLUCOSE / LACTATE DEHYDROGENASE / LIPASE / PHOSPHORUS / POTASSIUM / SODIUM / TOTAL BILIRUBIN / BLOOD UREA NITROGEN: tissue Plasma; for ABSOLUTE BASOPHIL / ABSOLUTE EOSINOPHIL / ABSOLUTE LYMPHOCYTE / ABSOLUTE MONOCYTE / ABSOLUTE SEGMENTED NEUTROPHIL / BASOPHIL / EOSINOPHIL / ERYTHROCYTE COUNT / HEMATOCRIT / HEMOGLOBIN / LEUKOCYTE COUNT / LYMPHOCYTE / MEAN CORPUSCULAR HEMOGLOBIN / MEAN CORPUSCULAR HEMOGLOBIN CONCENTRATION / MEAN CORPUSCULAR VOLUME / MONOCYTE / NEUTROPHIL / NUCLEATED RED BLOOD CELLS / PLATELET COUNT: tissue Blood
[1] = 25 mg/kg, 120 h, dose level Low, time 5 day
[2] = 1500 mg/kg, 72 h, dose level High, time 3 day
[3] = 1500 mg/kg, 120 h, dose level High, time 5 day

SMILES: COc1cc(/C=C/C(=O)O)ccc1O [FERULATE]
- TOTAL PROTEIN (25 mg/kg, 72 h, dose level Low, time 3 day): 5.97 G/DL
- ABSOLUTE BASOPHIL [1]: 0 CELLS/uL
- ABSOLUTE EOSINOPHIL [1]: 170 CELLS/uL
- ABSOLUTE LYMPHOCYTE [1]: 14805 CELLS/uL
- ABSOLUTE MONOCYTE [1]: 286 CELLS/uL
- ABSOLUTE SEGMENTED NEUTROPHIL [1]: 1439 CELLS/uL
- BASOPHIL [1]: 0%
- EOSINOPHIL [1]: 1.33%
- ERYTHROCYTE COUNT [1]: 5.63 x10E6/uL
- HEMATOCRIT [1]: 35.7%
- HEMOGLOBIN [1]: 13.7 G/DL
- LEUKOCYTE COUNT [1]: 16.7 x10E3/uL
- LYMPHOCYTE [1]: 87.67%
- MEAN CORPUSCULAR HEMOGLOBIN [1]: 24.43 pg
- MEAN CORPUSCULAR HEMOGLOBIN CONCENTRATION [1]: 38.37 G/DL
- MEAN CORPUSCULAR VOLUME [1]: 63.63 fL
- MONOCYTE [1]: 1.67%
- NEUTROPHIL [1]: 9.33%
- NUCLEATED RED BLOOD CELLS [1]: 0.33 /100WBC
- PLATELET COUNT [1]: 1379.67 x10E3/uL
- ALANINE AMINOTRANSFERASE [1]: 52.67 u/L
- ALBUMIN [1]: 4.27 G/DL
- ALKALINE PHOSPHATASE [1]: 350.33 u/L
- ASPARTATE AMINOTRANSFERASE [1]: 91.33 u/L
- CARBON DIOXIDE [1]: 28 mmol/L
- CHLORIDE [1]: 104.67 MEQ/L
- CHOLESTEROL [1]: 79.67 mg/dL
- CREATINE PHOSPHOKINASE [1]: 317 u/L
- CREATININE [1]: 0.18 mg/dL
- GLUCOSE [1]: 160.67 mg/dL
- LACTATE DEHYDROGENASE [1]: 421.67 u/L
- LIPASE [1]: 9.33 u/L
- PHOSPHORUS [1]: 12.9 mg/dL
- POTASSIUM [1]: 6.65 MEQ/L
- SODIUM [1]: 144.87 MEQ/L
- TOTAL BILIRUBIN [1]: 0.17 mg/dL
- TOTAL PROTEIN [1]: 5.93 G/DL
- ABSOLUTE BASOPHIL [2]: 0 CELLS/uL
- ABSOLUTE EOSINOPHIL [2]: 42 CELLS/uL
- ABSOLUTE LYMPHOCYTE [2]: 12584.67 CELLS/uL
- ABSOLUTE MONOCYTE [2]: 382 CELLS/uL
- ABSOLUTE SEGMENTED NEUTROPHIL [2]: 1124.67 CELLS/uL
- BASOPHIL [2]: 0%
- EOSINOPHIL [2]: 0.33%
- ERYTHROCYTE COUNT [2]: 5.75 x10E6/uL
- HEMATOCRIT [2]: 35.2%
- HEMOGLOBIN [2]: 13.03 G/DL
- LEUKOCYTE COUNT [2]: 14.13 x10E3/uL
- LYMPHOCYTE [2]: 89%
- MEAN CORPUSCULAR HEMOGLOBIN [2]: 22.7 pg
- MEAN CORPUSCULAR HEMOGLOBIN CONCENTRATION [2]: 37.03 G/DL
- MEAN CORPUSCULAR VOLUME [2]: 61.23 fL
- MONOCYTE [2]: 2.67%
- NEUTROPHIL [2]: 8%
- NUCLEATED RED BLOOD CELLS [2]: 0.33 /100WBC
- PLATELET COUNT [2]: 1425.67 x10E3/uL
- ALANINE AMINOTRANSFERASE [2]: 67.67 u/L
- ALBUMIN [2]: 4.13 G/DL
- ALKALINE PHOSPHATASE [2]: 355 u/L
- ASPARTATE AMINOTRANSFERASE [2]: 102.67 u/L
- BLOOD UREA NITROGEN [2]: 13.67 mg/dL
- CARBON DIOXIDE [2]: 25.67 mmol/L
- CHLORIDE [2]: 103.33 MEQ/L
- CHOLESTEROL [2]: 81.67 mg/dL
- CREATINE PHOSPHOKINASE [2]: 489 u/L
- CREATININE [2]: 0.15 mg/dL
- GLUCOSE [2]: 140.67 mg/dL
- LACTATE DEHYDROGENASE [2]: 475.67 u/L
- LIPASE [2]: 10 u/L
- PHOSPHORUS [2]: 10.73 mg/dL
- POTASSIUM [2]: 6.23 MEQ/L
- SODIUM [2]: 143.87 MEQ/L
- TOTAL BILIRUBIN [2]: 0.2 mg/dL
- TOTAL PROTEIN [2]: 5.5 G/DL
- ABSOLUTE BASOPHIL [3]: 0 CELLS/uL
- ABSOLUTE EOSINOPHIL [3]: 97 CELLS/uL
- ABSOLUTE LYMPHOCYTE [3]: 18780.67 CELLS/uL
- ABSOLUTE MONOCYTE [3]: 55.33 CELLS/uL
- ABSOLUTE SEGMENTED NEUTROPHIL [3]: 967 CELLS/uL
- BASOPHIL [3]: 0%
- EOSINOPHIL [3]: 0.33%
- ERYTHROCYTE COUNT [3]: 6.33 x10E6/uL
- HEMATOCRIT [3]: 38.23%
- HEMOGLOBIN [3]: 14.4 G/DL
- LEUKOCYTE COUNT [3]: 19.9 x10E3/uL
- LYMPHOCYTE [3]: 94%
- MEAN CORPUSCULAR HEMOGLOBIN [3]: 22.73 pg
- MEAN CORPUSCULAR HEMOGLOBIN CONCENTRATION [3]: 37.67 G/DL
- MEAN CORPUSCULAR VOLUME [3]: 60.37 fL
- MONOCYTE [3]: 0.33%
- NEUTROPHIL [3]: 5.33%
- NUCLEATED RED BLOOD CELLS [3]: 0.33 /100WBC
- PLATELET COUNT [3]: 1095 x10E3/uL
- ALANINE AMINOTRANSFERASE [3]: 64.33 u/L
- ALBUMIN [3]: 4.57 G/DL
- ALKALINE PHOSPHATASE [3]: 399 u/L
- ASPARTATE AMINOTRANSFERASE [3]: 93.67 u/L
- BLOOD UREA NITROGEN [3]: 16.33 mg/dL
- CARBON DIOXIDE [3]: 26 mmol/L
- CHLORIDE [3]: 107 MEQ/L
- CHOLESTEROL [3]: 64.67 mg/dL
- CREATINE PHOSPHOKINASE [3]: 723.33 u/L
- CREATININE [3]: 0.21 mg/dL
- GLUCOSE [3]: 164.33 mg/dL
- LACTATE DEHYDROGENASE [3]: 166.67 u/L
- LIPASE [3]: 9.67 u/L
- PHOSPHORUS [3]: 11.4 mg/dL
- POTASSIUM [3]: 6.41 MEQ/L
- SODIUM [3]: 146.6 MEQ/L
- TOTAL BILIRUBIN [3]: 0.2 mg/dL
- TOTAL PROTEIN [3]: 6.17 G/DL
